Assay results from patent US20240269298A1, “PHOSPHONYL DERIVATIVE, AND COMPOSITION AND PHARMACEUTICAL APPLICATION THEREOF” (XIZANG HAISCO PHARMACEUTICAL CO., LTD., priority 2021, published 2024).
Read-outs that look alike come from different tables or passages of the source.

Tests used:
A431 (EGFR-WT) cells = experiment: Inhibitory activity on proliferation of A431 (EGFR-WT) cells (CTG, 72 h); assay type: cell-based; settings: Homo sapiens, A-431
How it was run: (§1)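 IC50 values come from S-shaped dose-survival fits of CTG signal expressed as % of vehicle. Compound exposure lasted 72 h at 37 °C with 0.1% DMSO; seeding was 3000 A431 cells/well in DMEM+10% FBS and 1000 NCI-H1975 cells/well in RPMI1640+10% FBS.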

[1] = tested on: NCI-H1975 EGFR-L858R-T790M-C797S cells; experiment: Inhibitory activity on proliferation of NCI-H1975 EGFR-L858R-T790M-C797S cells (CellTiter-Glo, 72 h); assay type: cell-based; settings: Homo sapiens
Experimental: NCI-H1975 EGFR-L858R-T790M-C797S cells were cultured in an incubator at 37° C. with 5% CO2, and the culture medium was RPMI1640+10% FBS+100 μg/mL hygromycin. The cells in the logarithmic phase were collected, and the cell suspension was adjusted to an appropriate concentration with a hygromycin-free culture medium, and then plated on a 96-well plate at a density of 1500 cells/well and a volume of 90 μL. 10 μL of the compounds at different concentrations were added, and a vehicle control group (cells plus DMSO) was provided, wherein the concentration of DMSO was 0.1%. The cell culture plate was cultured in an incubator at 37° C. with 5% CO2 for 72 hours. After the incubation was completed, according to operation instructions for a CellTiter-Glo kit (Promega, G7572), 50 μL of CTG solution, which was already pre-melted and equilibrated to room temperature, was added to each well, and the mixtures were uniformly mixed for 2 min using a microplate shaker. The plate was placed at room temperature for 10 min, and then […] signal values were measured using a microplate reader (Envision 2104). […] was processed based on formula (2), and using the GraphPad Prism 5.0 software and nonlinear regression model, S-shaped dose-survival curves were plotted, and IC50 values were calculated. wherein Vsample was the readout of the drug-treated group, and Vvehicle control was the readout of the control group.

[2] = tested on: NCI-H1975 (EGFR-L858R-T790M) cells; experiment: Inhibitory activity on proliferation of NCI-H1975 (EGFR-L858R-T790M) cells (CTG, 72 h); assay type: cell-based; settings: Homo sapiens
How it was run: as §1

[3] = biological target: T1, EGFR protein in NCI-H1975 EGFR-L858R-T790M-C797S cells (Homo sapiens, UniProt P00533, C797S/L858R/T790M); experiment: Degradation activity on EGFR protein in NCI-H1975 EGFR-L858R-T790M-C797S cells, Method I (western blot, 72 h); assay type: cell-based; settings: 72 h incubation, EGFR protein relative to DMSO control
T1 construct: expressed in transfected cells; host or cells: NCI-H1975 EGFR-L858R-T790M-C797S (kept under hygromycin selection)
T1 sequence (P00533 25-1210 T790M/C797S/L858R): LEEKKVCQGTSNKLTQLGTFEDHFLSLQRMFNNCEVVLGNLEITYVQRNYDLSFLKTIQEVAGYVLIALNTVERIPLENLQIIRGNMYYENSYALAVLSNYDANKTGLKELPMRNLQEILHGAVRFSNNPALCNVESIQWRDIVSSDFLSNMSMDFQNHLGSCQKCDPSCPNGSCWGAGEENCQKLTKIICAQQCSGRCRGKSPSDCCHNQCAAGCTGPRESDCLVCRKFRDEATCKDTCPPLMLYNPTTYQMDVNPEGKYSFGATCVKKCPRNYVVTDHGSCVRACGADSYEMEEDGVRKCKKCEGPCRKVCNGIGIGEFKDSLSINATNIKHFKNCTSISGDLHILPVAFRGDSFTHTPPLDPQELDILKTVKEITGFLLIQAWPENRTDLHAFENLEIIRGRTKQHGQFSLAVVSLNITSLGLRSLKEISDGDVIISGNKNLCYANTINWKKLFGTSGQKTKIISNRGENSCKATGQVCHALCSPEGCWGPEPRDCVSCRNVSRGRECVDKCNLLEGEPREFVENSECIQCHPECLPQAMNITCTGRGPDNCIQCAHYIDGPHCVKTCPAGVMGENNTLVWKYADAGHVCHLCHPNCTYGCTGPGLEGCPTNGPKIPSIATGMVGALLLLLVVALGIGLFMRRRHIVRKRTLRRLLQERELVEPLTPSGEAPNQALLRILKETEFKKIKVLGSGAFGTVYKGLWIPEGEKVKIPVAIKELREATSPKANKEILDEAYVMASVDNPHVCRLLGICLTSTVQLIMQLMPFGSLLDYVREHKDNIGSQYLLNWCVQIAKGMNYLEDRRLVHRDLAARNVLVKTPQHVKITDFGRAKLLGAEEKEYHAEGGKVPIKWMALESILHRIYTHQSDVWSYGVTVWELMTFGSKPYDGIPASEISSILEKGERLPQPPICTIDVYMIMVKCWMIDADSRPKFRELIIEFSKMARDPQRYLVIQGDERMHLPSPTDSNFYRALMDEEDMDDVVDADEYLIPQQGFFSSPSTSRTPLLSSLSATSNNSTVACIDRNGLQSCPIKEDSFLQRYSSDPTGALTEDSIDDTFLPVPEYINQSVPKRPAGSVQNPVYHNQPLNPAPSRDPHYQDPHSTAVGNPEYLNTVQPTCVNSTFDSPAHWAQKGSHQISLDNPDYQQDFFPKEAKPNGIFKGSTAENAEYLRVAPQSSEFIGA
Experimental: Protein sample preparation: NCI-H1975 EGFR-L858R-T790M-C797S cells were cultured in an incubator at 37° C. with 5% CO2, and the culture medium was RPMI1640+10% FBS+100 μg/mL hygromycin. The cells in the logarithmic phase were collected, and the cell suspension was adjusted to an appropriate concentration with a hygromycin-free culture medium, plated on a 6-well plate at a density of 200000 cells/well and a volume of 2 mL, and cultured overnight in an incubator at 37° C. with 5% CO2. The next day, the compounds at different concentrations were added. DMSO control wells were provided, wherein the concentration of DMSO in all wells was 0.1%. The 6-well plate was cultured in an incubator at 37° C. with 5% CO2 for 72 h, and then 30 μL of RIPA lysates (Beyotime, Cat. P0013B) containing protease inhibitors (Beyotime, Cat. P0013B) were added. The mixtures were lysed on ice for 30 min. Centrifugation was carried out at 13000 rpm/min at 4° C. for 20 min to collect protein supernatant samples, and protein quantification was performed by the BCA method. Samples for western blot detection were prepared.
Western blot detection: 20 μg of protein samples were added to each well, subjected to polyacrylamide gel electrophoresis and transferred to a membrane, and then diluted anti-EGFR (CST, Cat. 4267S) and […] (Kangchen, Cat. KC-5G4) antibodies were added and incubated overnight at 4° C. After washing the membrane, diluted goat anti-rabbit (Licor, Cat. 926-32211) and goat anti-mouse (Licor, Cat. 926-68070) antibodies were added and incubated in the dark for 45 min. Scanning and detection at wavelengths of 700 nm and 800 nm were performed with a far-infrared imaging system (Odyssey).
According to formula (3), the expression level of EGFR protein in the cells relative to the DMSO control group was calculated after incubation with different concentrations of compounds. wherein EGFRcompound was the fluorescence value of EGFR protein after incubation with compounds, and EGFRvehicle was the fluorescence value of EGFR protein in the DMSO control group. Using the Origin 9.2 software, the drug concentration DC50 values when the expression level of EGFR protein was 50% relative to the DMSO control group were calculated.

[4] = Pharmacokinetic test in mice; assay type: in vivo; settings: male, ICR, mouse, po, administration i.g. (10 mg/kg), plasma
How it was run: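 Male ICR mice (20-25 g), fasted 12-14 h before dosing and fed 4 h after, received a single intravenous or intragastric dose. Orbital plasma sampled from 0 to 24 h (5 min-24 h points); LC-MS/MS quantitation for PK parameters and bioavailability.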

[5] = read-out: IC50 (value in brackets)

| IC50 (A431 (EGFR-WT) cells) | IC50 ([1]; read-out: IC50 (class symbol)) | IC50 ([1]; read-out: IC50 (value)) | IC50 ([2]; read-out: IC50 (class symbol)) | IC50 [2, 5] | DC50 [3] | AUC(0-t) [4] | AUC [4] | half-life [4] | Compound |
| --- | --- | --- | --- | --- | --- | --- | --- | --- | --- |
| ≥ 10000 nM | < 200 nM | 65 nM | < 100 nM | 21 nM | < 100 nM | – | – | – | COc1cc(N2CCC3(CCN(CC4CCN(c5ccc6c(c5)C(=O)N(C5CCC(=O)NC5=O)C6=O)CC4)CC3)CC2)c(-c2cnn(C)c2)cc1Nc1ncc(Br)c(Nc2ccc(-c3ccccc3)cc2P(C)(C)=O)n1 (stereo not shown) [Compound 57, 5-(4-((9-(4-((5-bromo-4-((3-(dimethylphosphoryl)-[1,1′-biphenyl]-4-yl)amino)pyrimidin-2-yl)amino)-5-methoxy-2-(1-methyl-1H-pyrazol-4-yl)phenyl)-3,9-diazaspiro[5.5]undecan-3-yl)methyl)piperidin-1-yl)-2-(2,6-dioxopiperidin-3-yl)isoindoline-1,3-dione] |
| ≥ 10000 nM | – | – | < 100 nM | 28 nM | < 100 nM | 2310 ng·h/mL | – | – | COc1cc(N2CCC(N3CCC4(CCCN(c5ccc6c(c5)C(=O)N(C5CCC(=O)NC5=O)C6=O)C4)CC3)CC2)c(-c2cnn(C)c2)cc1Nc1ncc(Br)c(Nc2ccc(-c3ccccc3)cc2P(C)(C)=O)n1 (stereo not shown) [Compound 62, 5-(9-(1-(4-((5-bromo-4-((3-(dimethylphosphoryl)-[1,1′-biphenyl]-4-yl)amino)pyrimidin-2-yl)amino)-5-methoxy-2-(1-methyl-1H-pyrazol-4-yl)phenyl)piperidin-4-yl)-2,9-diazaspiro[5.5]undecan-2-yl)-2-(2,6-dioxopiperidin-3-yl)isoindoline-1,3-dione] |
| ≥ 10000 nM | < 200 nM | 152 nM | 100 to 500 nM | 107 nM | – | – | 118000 ng·h/mL | 12.7 h | COc1cc(N2CCC(CN3CCN(c4ccc5c(c4)C(=O)N(C4CCC(=O)NC4=O)C5=O)CC3)CC2)c(-c2cnn(C)c2)cc1Nc1ncc(Br)c(Nc2ccc(-c3ccccc3F)cc2P(C)(C)=O)n1 (stereo not shown) [Compound 101, 5-(4-((1-(4-((5-bromo-4-((3-(dimethylphosphoryl)-2′-fluoro-[1,1′-biphenyl]-4-yl)amino)pyrimidin-2-yl)amino)-5-methoxy-2-(1-methyl-1H-pyrazol-4-yl)phenyl)piperidin-4-yl)methyl)piperazin-1-yl)-2-(2,6-dioxopiperidin-3-yl)isoindoline-1,3-dione] |
| ≥ 10000 nM | – | – | < 100 nM | 92 nM | < 100 nM | 4460 ng·h/mL | – | – | COc1cc(N2CCC3(CCN(CC4CCN(c5ccc6c(c5)C(=O)N(C5CCC(=O)NC5=O)C6=O)CC4)CC3)CC2)c(-c2cnn(C)c2)cc1Nc1ncc(Cl)c(Nc2ccc(-c3ccccc3)cc2P(C)(C)=O)n1 (stereo not shown) [Compound 59, 5-(4-((9-(4-((5-chloro-4-((3-(dimethylphosphoryl)-[1,1′-biphenyl]-4-yl)amino)pyrimidin-2-yl)amino)-5-methoxy-2-(1-methyl-1H-pyrazol-4-yl)phenyl)-3,9-diazaspiro[5.5]undecan-3-yl)methyl)piperidin-1-yl)-2-(2,6-dioxopiperidin-3-yl)isoindoline-1,3-dione] |
| ≥ 10000 nM | < 200 nM | 136 nM | 100 to 500 nM | 129 nM | – | 62300 ng·h/mL | – | – | COc1cc(N2CCC(CN3CCN(c4ccc5c(c4)C(=O)N(C4CCC(=O)NC4=O)C5=O)CC3)CC2)c(-c2cnn(C)c2)cc1Nc1ncc(Cl)c(Nc2ccc(-c3ccccc3)cc2P(C)(C)=O)n1 (stereo not shown) [Compound 65, 5-(4-((1-(4-((5-chloro-4-((3-(dimethylphosphoryl)-[1,1′-biphenyl]-4-yl)amino)pyrimidin-2-yl)amino)-5-methoxy-2-(1-methyl-1H-pyrazol-4-yl)phenyl)piperidin-4-yl)methyl)piperazin-1-yl)-2-(2,6-dioxopiperidin-3-yl)isoindoline-1,3-dione] |
| ≥ 10000 nM | – | – | < 100 nM | 34 nM | < 100 nM | 3200 ng·h/mL | – | – | COc1cc(N2CCC(N3CCC4(CCCN(c5ccc6c(c5)C(=O)N(C5CCC(=O)NC5=O)C6=O)C4)CC3)CC2)c(-c2cnn(C)c2)cc1Nc1ncc(Cl)c(Nc2ccc(-c3ccccc3)cc2P(C)(C)=O)n1 (stereo not shown) [Compound 60, 5-(9-(1-(4-((5-chloro-4-((3-(dimethylphosphoryl)-[1,1′-biphenyl]-4-yl)amino)pyrimidin-2-yl)amino)-5-methoxy-2-(1-methyl-1H-pyrazol-4-yl)phenyl)piperidin-4-yl)-2,9-diazaspiro [5.5]undecan-2-yl)-2-(2,6-dioxopiperidin-3-yl)isoindoline-1,3-dione] |
| ≥ 10000 nM | < 200 nM | 72 nM | 100 to 500 nM | 110 nM | – | 30600 ng·h/mL | – | – | COc1cc(N2CCC(CN3CCC4(CC3)CCN(c3cc5c(cc3F)C(=O)N(C3CCC(=O)NC3=O)C5=O)CC4)CC2)c(-c2cnn(C)c2)cc1Nc1ncc(Br)c(Nc2ccc(-c3ccccc3)cc2P(C)(C)=O)n1 (stereo not shown) [Compound 47, 5-(9-((1-(4-((5-bromo-4-((3-(dimethylphosphoryl)-[1,1′-biphenyl]-4-yl)amino)pyrimidin-2-yl)amino)-5-methoxy-2-(1-methyl-1H-pyrazol-4-yl)phenyl)piperidin-4-yl)methyl)-3,9-diazaspiro[5.5]undecan-3-yl)-2-(2,6-dioxopiperidin-3-yl)-6-fluoroisoindoline-1,3-dione] |
| ≥ 10000 nM | < 200 nM | 83 nM | < 100 nM | 41 nM | < 100 nM | – | – | – | COc1cc(N2CCC(N3CCN(CC4CCN(c5ccc6c(c5)C(=O)N(C5CCC(=O)NC5=O)C6=O)CC4)CC3)CC2)c(-c2cnn(C)c2)cc1Nc1ncc(Br)c(Nc2ccc(-c3ccccc3)cc2P(C)(C)=O)n1 (stereo not shown) [Trifluoroacetate of compound 23, 5-(4-((4-(1-(4-((5-bromo-4-((3-(dimethylphosphoryl)-[1,1′-biphenyl]-4-yl)amino)pyrimidin-2-yl)amino)-5-methoxy-2-(1-methyl-1H-pyrazol-4-yl)phenyl)piperidin-4-yl)piperazin-1-yl)methyl)piperidin-1-yl)-2-(2,6-dioxopiperidin-3-yl)isoindoline-1,3-dione] |
| ≥ 10000 nM | 200 to 500 nM | 364 nM | 100 to 500 nM | 105 nM | – | 59200 ng·h/mL | – | – | COc1cc(N2CCC(CN3CCN(c4ccc5c(c4)C(=O)N(C4CCC(=O)NC4=O)C5=O)CC3)CC2)c(-c2cnn(C)c2)cc1Nc1ncc(Br)c(Nc2ccc(-c3ccccc3)cc2P(C)(C)=O)n1 (stereo not shown) [Compound 45, 5-(4-((1-(4-((5-bromo-4-((3-(dimethylphosphoryl)-[1,1′-biphenyl]-4-yl)amino)pyrimidin-2-yl)amino)-5-methoxy-2-(1-methyl-1H-pyrazol-4-yl)phenyl)piperidin-4-yl)methyl)piperazin-1-yl)-2-(2,6-dioxopiperidin-3-yl)isoindoline-1,3-dione] |
